Laboratory results as given in paper PMC10692228, “A simple method for developing lysine targeted covalent protein reagents” (Nature Communications, 2023).
Blank lines part the entries; values can stand above or below the substance they belong to.

Assays:
14-3-3σ = assay: Covalent labeling of 14-3-3σ by peptides, intact protein LC/MS; format: binding, human; details: 5 µM peptide, 2 µM 14-3-3σ; for 14-3-3σ full peptide adduct (degree of labeling): 25 °C; for degree of labeling of 14-3-3σ: 37 C
Procedure: The LC/MS runs for 14-3-3σ were performed on a Waters ACQUITY UPLC class H instrument, in positive ion mode using electrospray ionization. […] The column was held at 40 °C and the autosampler at 10 °C. […] The run flow was 0.4 mL/min. […] The MS data were collected on a Waters SQD2 detector with an m/z range of 2–3071.98 at a range of 900–1900 m/z. The desolvation temperature was 500 °C with a flow rate of 800 L/h. The voltages used were 1.00 kV for the capillary and 24 V for the cone. MassLynx version 4.2 was used to operate the LCMS and analyze the data. Raw data were processed using openLYNX and deconvoluted using MaxEnt with a range of 28,000: 34,000 Da and a resolution of 1 Da/channel. […] For analysis, 24 μl sample was mixed with 6 μl of 2.4% formic acid in water and then 10 μl were injected to intact protein LCMS.

[1] = tested on: 14-3-3 proteins in A549 lysates; assay: Labeling of 14-3-3 proteins by BODIPY-modified peptides in A549 lysates (SDS-PAGE fluorescence, western blot); format: binding; details: BODIPY-labeled derivatives of the peptides; 1 µM (peptides 3, 8) or 0.25 µM (peptide 12), lysate […], 25 °C, 1 h or 22 h
Procedure: A549 cells were obtained from biological services of the Weizmann Institute. For experiments in lysates, A549 cells were grown in DMEM + FBS. The cells were washed with PBS, scraped from the plate and centrifuged 200 × g for 5 min. […] Cells were incubated in the lysis buffer and centrifuged at 21,000 × g for 10 min at 4 °C. The protein concentration was estimated using BCA, and the lysate was diluted to 1.9 mg/ml in the lysis buffer. […] Then, 13.3 μl of 4X LDS samples buffer with 20 mM DTT was added and the samples were heated for 10 min at 70 °C. The samples were loaded on Bis-Tris gradient gels (4-20%, Genscript) and run using Tris-MOPS buffer at 60 mA/200 V. […] Images were processed and generated using ImageLab. […] Afterwards the gel was directly imaged in ChemiDoc. page 8: Supplementary Figure 7. Peptide binding selectivity in cell lysates and media. a) Raw images for the western blot experiment depicted in figure 5. Experiments was repeated 3 times. Top row: images for experiment done on A549 lysates. Bottom row: Images from extracellular medium. b) Direct gel imaging for experiment in which 1 μ[…] lysates at the indicated concentrations for 22 hours at 25°C. The same amount of lysate was loaded in each lane (28.5 μg). The intense fluorescence at the bottom comes from unbound peptide.

[2] = tested on: 14-3-3 proteins in extracellular medium of A549 cells; assay: Detection of 14-3-3 proteins by BODIPY-modified peptides in extracellular medium of A549 cells; format: binding; details: BODIPY-labeled derivatives; concentrated serum-free medium of A549 cells grown 24 h or 48 h
Procedure: For experiments in medium, after growing the cells they were transferred to DMEM without FBS, followed by incubation for either 24 h or 48 h. After the incubation, 8.5 ml of the medium was filtered through a 0.2 µm filter, concentrated using a centrifugal concentrator (vivaspin, cutoff 8000–10,000 Da) to ~200 µl, and diluted to 8 ml using HEPES 50 mM pH = 7.5, 150 mM NaCl. This was followed by 2 additional rounds of dilution and concentration to ~200 µl. The samples were then diluted to 300 µl with IGEPAL added to 1% as well as protease inhibitors and PhosStop. 38 µl samples from the medium were then incubated with the peptides and analyzed as performed for the lysate, with 15 s exposure for fluorescence and 50 second exposure for chemiluminescence.

[3] = target: human 14-3-3σ with an N-terminal His6-tag (human) (UniProt P31947)
[4] = target: human 14-3-3σ with an N-terminal His6-tag (human) (UniProt P31947); remark: listed apart in the source
[5] = target: human 14-3-3σ with an N-terminal His6-tag (human) (UniProt P31947); remark: listed apart in the source

Sequence of UniProt P31947 (P31947 whole entry): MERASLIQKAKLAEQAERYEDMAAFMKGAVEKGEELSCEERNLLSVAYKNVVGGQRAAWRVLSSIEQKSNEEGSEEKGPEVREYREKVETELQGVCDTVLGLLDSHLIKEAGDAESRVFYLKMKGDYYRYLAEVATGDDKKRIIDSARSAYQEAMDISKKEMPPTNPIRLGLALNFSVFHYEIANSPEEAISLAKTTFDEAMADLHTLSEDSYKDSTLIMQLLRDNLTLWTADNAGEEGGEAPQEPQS

Substance: Ac-RAH-(pT)-(mC)-PASLQ-NH2 [Peptide 8, Methacrylate phosphopeptide derived from YAP-1 (PDB 3MHR)]
- 14-3-3σ full peptide adduct (degree of labeling) (14-3-3σ; intact protein LC/MS, time 0 h): 0
- 14-3-3σ full peptide adduct (degree of labeling) (14-3-3σ; time 1 h (60 min)): 34.14
- 14-3-3σ full peptide adduct (degree of labeling) (14-3-3σ; time 2.5 h (150 min)): 55.96
- 14-3-3σ full peptide adduct (degree of labeling) (14-3-3σ; time 5 h (300 min)): 74.24
- 14-3-3σ full peptide adduct (degree of labeling) (14-3-3σ; time 24 h (1440 min)): 86.25
- degree of labeling of 14-3-3σ (14-3-3σ; LC/MS, time 0 h): 0
- degree of labeling of 14-3-3σ (14-3-3σ; time 35 min): 53.08
- degree of labeling of 14-3-3σ (14-3-3σ; time 70 min): 70.97
- degree of labeling of 14-3-3σ (14-3-3σ; time 1.75 h): 80.85
- degree of labeling of 14-3-3σ (14-3-3σ; time 4 h): 93.18
- degree of labeling of 14-3-3σ (14-3-3σ; time 8 h): 91.76
- increase of the rate of labeling at 37 °C (14-3-3σ; 37 °C versus 25 °C): roughly 4 fold
- labeling of proteins in A549 lysates [1]: formed two main bands

Substance: Ac-RAH-(pT)-SPASL-X-NH2 [Peptide 12, reference compound]
- labeling of proteins in A549 lysates [1]: selectively labeled 14-3-3σ and generated a single fluorescent band
- detection of 14-3-3 proteins in extracellular medium [2]: 14-3-3σ was not detected

Substance: Peptide 3 (Ac-RSA-(pT)-(mC)-PSL-NH2)
- percent covalent labeling (overnight, 200 µM peptide) [3]: 51%
- percent covalent labeling within 5 h [4]: 60%
- percent covalent labeling after 48 h [5]: 75%

The next lines start with the values.

- percent covalent labeling (overnight, 200 µM peptide) [3]: 35%
- percent covalent labeling within 5 h [4]: 80%
- percent covalent labeling after 48 h [5]: 90%
Substance: Peptide 8 (Ac-RAH-(pT)-(mC)-PASLQ-NH2)

- percent covalent labeling (overnight, 200 µM peptide) [3]: 57%
- percent free 14-3-3σ remaining within 2.5 h [4]: < 5%
- percent covalent labeling after 48 h [5]: 100%
Substance: Peptide 11 (Ac-RAH-(pT)-SPAS-(mC)-Q-NH2)
